We go through two molecules from US20250287955A1, “METHODS OF […] PLANT FROM INSECT PESTS” (NOVONESIS PLANT BIOSOLUTIONS A/S, priority 2018, published 2025).

Read-outs that look alike come from different tables or passages of the source.

This experiment concerns 3rd instar cabbage looper. The experiment is described as follows: cabbage leaf disc dip bioassay, mortality of cabbage looper. The experiment is classed as in vivo. As for the experimental part: An enzyme preparation, designated A, comprising an enzyme having lipase activity was diluted to 10% of the original concentration. 1 mL of the enzyme was added to 9 mL of phosphate buffered saline (PBS). The diluted enzyme was desalted using a desalting column from Sigma Aldrich. Each column having the capacity to desalt 2.5 mL of enzyme, 4 columns for the enzyme were used. Each column was equilibrated with 25 mL of PBS. 2.5 mL of sample was loaded into the column, the flow thru was discarded. 3.5 mL of PBS was added to elute the desalted enzyme. This flow thru was collected for use in the bioassay. 4.95 mL of the desalted enzyme was added to 99 mL PBS.
The chlorpyrifos insecticide (Sigma 45395) was prepared based on a stock solution of 10× (113 mg/L) using acetone. The insecticide was then diluted further using acetone to a 1:6 ratio.
Approximately 0.3 g of super absorbent granules were placed into 1.25 ounce cups and 6 mL of deionized water was added to hydrate the granules. Discs of green cabbage (2.8 cm) were cut with plastic tubing after the outer leaves had been removed. One disc was used for each individual insect. After cutting, leaf discs were rinsed in deionized water and spin dried in a small salad spinner to remove excess water.
Liquid treatments were poured into either 50 mL glass beakers for the insecticide or medium weigh boats for aqueous treatments and cabbage leaf discs were dipped in the treatment with disposable forceps, tilted to allow excess liquid to run off, and placed into cups with hydrated granules at an angle.
The cabbage leaf discs were dipped in either acetone (enzyme alone treatment) or chlorpyrifos at 18.83 mg/L of acetone. These were set to dry for 1 hr. The cabbage discs were then dipped either in phosphate buffer (chlorpyrifos alone treatments) or Enzyme A (enzyme alone or in combination with chlorpyrifos treatment), along with a 0.03% surfactant supplement.
After the cabbage discs had dried for 1 hr, a single 3rd instar cabbage looper was added to each individual cabbage disc in its cup and a paperboard lid was snapped into place. A total of 20 insects were evaluated for each treatment.
Experiment 2: This experiment was performed similar to Experiment 1, except the chemical insecticide was Clothianidin at 1:2, and the enzyme preparation, designated B, comprises an enzyme having glucosidase activity.
Experiment 3: This experiment was performed similar to Experiment 2, except the enzyme preparations, designated C and D, respectively, each comprises a different enzyme having protease activity.

For orientation: mortality means the percentage killed. For `CCOP(=S)(OCC)Oc1nc(Cl)c(Cl)cc1Cl` [Chlorpyrifos, chlorpyrifos], the “LT50 (95% confidence intervals) in days” value (Experiment 1, estimated time to kill 50% of the insects, Probit analysis, chlorpyrifos 18.83 mg/L, Enzyme A 0.05%, 20 insects per treatment) was 11.11 (9.90-12.48) days. The mortality at 18.83 µg/mL (Trichoplusia ni, foliar, 168 h, read-out: % Mortality (7DAT), Experiment 1, Abbott's corrected, 7 days after treatment, chlorpyrifos 18.83 mg/L, Enzyme A 0.05%) amounted to 11%.

Consider `CN/C(=N\[N+](=O)[O-])NCc1cnc(Cl)s1` [Clothianidin], for which, under “Experiment 2, Probit analysis, clothianidin 30 mg/L”, the “LT50 (95% confidence intervals) in days” value is 19.37 (16.23-23.38) days. For the same molecule, the “LT50 (95% confidence intervals)” value (Experiment 3, Probit analysis, clothianidin 30 mg/L) came out at 12.34 days. Further, the mortality is, setting by setting: (Trichoplusia ni, foliar, 120 h, Experiment 3, Abbott's corrected, 5 days after treatment, clothianidin 30 mg/L, read-out: % Mortality (5DAT)) 15%; (Trichoplusia ni, foliar, 144 h, Experiment 3, Abbott's corrected, 6 days after treatment, clothianidin 30 mg/L, read-out: % Mortality (6DAT)) 20%; (Trichoplusia ni, foliar, 168 h, Experiment 3, Abbott's corrected, 7 days after treatment, clothianidin 30 mg/L, read-out: % Mortality (7DAT)) 30%; (Trichoplusia ni, foliar, 336 h, Experiment 3, Abbott's corrected, 14 days after treatment, clothianidin 30 mg/L, read-out: % Mortality (14DAT)) 45%; (Trichoplusia ni, foliar, Experiment 3, Abbott's corrected, 8-11 days after treatment, clothianidin 30 mg/L, read-out: % Mortality (8-11DAT)) 40%; (Trichoplusia ni, foliar, Experiment 3, Abbott's corrected, 12-13 days after treatment, clothianidin 30 mg/L, read-out: % Mortality (12-13DAT)) 45%. Further, the mortality at 30 µg/mL (Trichoplusia ni, foliar, 144 h, Experiment 2, Abbott's corrected, 6 days after treatment, clothianidin 30 mg/L, read-out: % Mortality (6DAT)) amounted to 0%.
